Data on five compounds can be found in PMC10983009 (Journal of Medicinal Chemistry, 2024).

“And” between values parts separate entries of the source, which are not always exact repeats. Equal values may be shown once. Read-outs that look alike come from different tables or passages of the source. Marks after values point to notes of the source that are not given here. Bounds are passed on as bounds.

For data set [1], the system named is Caco-2 cells. The following applies: literature value, cited from earlier work.
For data set [2] the following is noted: compound remaining, literature value; cited from earlier work.
Data set [3] has as its target DDR1(h) (Homo sapiens, UniProt Q08345). The following applies: at 1 μM; cited from earlier work.
Data set [4] addresses TNIK(h) (Homo sapiens, UniProt Q9UKE5). The following applies: at 1 μM; cited from earlier work.
The conditions of data set [5]: compound remaining, literature value; cited from earlier work. The source holds these as a separate data set.
Data set [6] in a line: In vivo PK exposure in mouse model. The following applies: male, NOD-SCID, po, 25 mg/kg.
The nature of data set [7]: Caco-2 permeability assay. Type of data set: in vitro ADME. The following applies: human, Caco-2, pH 7.4. In general terms: Caco-2 monolayers are a common model of the intestinal barrier.
In data set [8] the target is Full Kinase Panel (422-member kinase set). The experiment in a line: Eurofins Full Kinase Panel KinaseProfiler, whole panel. The following applies: at 1 μM. Type of data set: biochemical.
Data set [9] can be described thus: Liver microsomal metabolic stability assay. The following applies: compound remaining after 60 min at 37 °C, 1 μM. Type of data set: in vitro ADME, human. (In general: Liver microsomes are vesicles of endoplasmic reticulum, rich in cytochrome P450 enzymes.)
For data set [10], the target named is T1, ALK4/ACVR1β (Homo sapiens, UniProt P36896).
T1 sequence (P36896 24-505): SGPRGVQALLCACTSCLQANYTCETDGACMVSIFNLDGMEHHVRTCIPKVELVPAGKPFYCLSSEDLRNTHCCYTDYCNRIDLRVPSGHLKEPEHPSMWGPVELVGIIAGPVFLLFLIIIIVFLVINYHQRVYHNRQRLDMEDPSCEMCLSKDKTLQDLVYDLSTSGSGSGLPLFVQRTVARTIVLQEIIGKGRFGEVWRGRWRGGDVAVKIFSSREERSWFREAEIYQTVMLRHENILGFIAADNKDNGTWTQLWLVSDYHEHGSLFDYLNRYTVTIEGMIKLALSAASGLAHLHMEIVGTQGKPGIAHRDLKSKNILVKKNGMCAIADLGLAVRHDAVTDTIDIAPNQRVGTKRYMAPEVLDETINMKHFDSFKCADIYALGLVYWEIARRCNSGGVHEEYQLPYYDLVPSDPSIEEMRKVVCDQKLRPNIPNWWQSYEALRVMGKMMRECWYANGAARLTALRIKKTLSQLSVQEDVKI
Put plainly: Radiometric in vitro kinase assay.

Data set [11] in a line: Liver microsomal metabolic stability assay. Type of data set: in vitro ADME, CD-1 mouse (male). The following applies: compound remaining after 60 min at 37 °C, 1 μM.
Data set [12] concerns H3.3K27M, ACVR1^R206H mutant HSJD-DIPG-007 cells. The following applies: 25 mg/kg for 28 days; cited from earlier work.

Chain of TNIK(h) (Q9UKE5 whole entry): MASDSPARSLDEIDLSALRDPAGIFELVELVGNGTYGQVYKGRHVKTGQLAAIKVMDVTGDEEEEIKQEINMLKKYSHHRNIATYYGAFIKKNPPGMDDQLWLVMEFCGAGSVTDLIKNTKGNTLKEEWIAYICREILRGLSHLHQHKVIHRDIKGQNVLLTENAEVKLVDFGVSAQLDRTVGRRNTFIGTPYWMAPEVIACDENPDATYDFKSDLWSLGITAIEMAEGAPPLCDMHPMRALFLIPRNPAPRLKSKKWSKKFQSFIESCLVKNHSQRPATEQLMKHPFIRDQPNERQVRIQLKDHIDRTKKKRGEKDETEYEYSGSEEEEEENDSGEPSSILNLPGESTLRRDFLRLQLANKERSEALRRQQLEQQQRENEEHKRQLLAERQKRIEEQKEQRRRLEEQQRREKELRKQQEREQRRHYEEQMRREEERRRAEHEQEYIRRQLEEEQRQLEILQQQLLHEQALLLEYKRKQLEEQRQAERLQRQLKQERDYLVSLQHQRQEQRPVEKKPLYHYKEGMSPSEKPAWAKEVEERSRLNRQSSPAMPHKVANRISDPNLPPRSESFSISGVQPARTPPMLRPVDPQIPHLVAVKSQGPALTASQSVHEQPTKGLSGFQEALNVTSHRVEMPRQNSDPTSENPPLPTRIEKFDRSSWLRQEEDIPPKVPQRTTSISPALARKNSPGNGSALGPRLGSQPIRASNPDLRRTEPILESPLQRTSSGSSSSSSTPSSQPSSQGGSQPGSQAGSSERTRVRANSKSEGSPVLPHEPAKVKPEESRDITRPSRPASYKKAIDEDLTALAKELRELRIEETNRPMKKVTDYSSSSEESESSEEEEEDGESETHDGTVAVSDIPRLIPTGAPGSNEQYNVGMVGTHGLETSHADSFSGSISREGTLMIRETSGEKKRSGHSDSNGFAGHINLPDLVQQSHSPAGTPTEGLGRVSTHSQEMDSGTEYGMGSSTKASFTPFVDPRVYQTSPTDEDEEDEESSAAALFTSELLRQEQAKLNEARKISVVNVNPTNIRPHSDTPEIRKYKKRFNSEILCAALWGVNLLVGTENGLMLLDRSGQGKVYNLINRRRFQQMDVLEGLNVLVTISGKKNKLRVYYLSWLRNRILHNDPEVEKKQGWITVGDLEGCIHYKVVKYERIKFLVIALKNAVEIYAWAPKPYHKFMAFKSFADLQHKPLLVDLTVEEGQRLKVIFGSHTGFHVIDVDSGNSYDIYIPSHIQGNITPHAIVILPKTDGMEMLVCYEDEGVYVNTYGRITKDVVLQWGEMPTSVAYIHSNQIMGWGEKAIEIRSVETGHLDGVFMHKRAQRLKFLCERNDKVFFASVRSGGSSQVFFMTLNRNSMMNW
Chain of DDR1(h) (Q08345 19-913): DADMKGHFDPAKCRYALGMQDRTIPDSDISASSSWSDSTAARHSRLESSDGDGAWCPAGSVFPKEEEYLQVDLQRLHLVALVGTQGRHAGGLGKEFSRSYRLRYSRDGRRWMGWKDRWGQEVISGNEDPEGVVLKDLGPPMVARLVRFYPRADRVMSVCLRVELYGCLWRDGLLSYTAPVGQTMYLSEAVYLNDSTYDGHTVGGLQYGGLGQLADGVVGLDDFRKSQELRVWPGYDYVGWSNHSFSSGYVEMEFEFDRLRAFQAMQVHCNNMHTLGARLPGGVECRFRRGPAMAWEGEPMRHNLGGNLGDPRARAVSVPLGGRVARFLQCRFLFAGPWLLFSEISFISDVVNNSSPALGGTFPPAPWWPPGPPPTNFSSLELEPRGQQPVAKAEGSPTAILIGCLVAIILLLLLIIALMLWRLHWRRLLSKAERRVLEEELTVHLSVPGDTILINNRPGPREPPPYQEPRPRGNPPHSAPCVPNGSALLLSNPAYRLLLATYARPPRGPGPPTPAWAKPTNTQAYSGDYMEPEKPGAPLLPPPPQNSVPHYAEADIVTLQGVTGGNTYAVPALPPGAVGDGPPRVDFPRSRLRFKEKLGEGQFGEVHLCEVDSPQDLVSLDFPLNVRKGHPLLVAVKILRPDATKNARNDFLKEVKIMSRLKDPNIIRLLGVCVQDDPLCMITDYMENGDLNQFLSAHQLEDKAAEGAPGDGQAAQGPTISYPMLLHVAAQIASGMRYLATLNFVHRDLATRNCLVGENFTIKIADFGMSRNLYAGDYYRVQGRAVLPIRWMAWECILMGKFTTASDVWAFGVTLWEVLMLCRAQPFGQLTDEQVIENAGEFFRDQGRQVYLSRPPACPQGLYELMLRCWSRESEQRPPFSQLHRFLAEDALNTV

Consider `COc1cc(-c2cncc(-c3ccc(N4CCNCC4)cc3)c2C)cc(OC)c1OC` [Compound M4K2009], for which the “Caco-2 Permeability Assay Papp_AB” value in data set [1] (A to B) is on record as 5.4 ^a 10^–6 cm/s. In addition, in data set [1] (B to A), the “Caco-2 Permeability Assay Papp_BA” value was 1.5 ^a 10^–6 cm/s. The “Microsomal Stability Assay MLM (%)” value in [2] was 65 ^a % and 65%. Also, the “inhibition of DDR1” value in data set [3] was “almost complete inhibition”. In [4], the “inhibition of TNIK” value is given as “almost complete inhibition”. Also, in [5], the “Microsomal Stability Assay HLM (%)” value was 71 ^a % and 71%.

As to `COc1cc(-c2cncc3c2CCOc2cc(N4CCN(C)CC4)ccc2-3)cc(OC)c1OC` [Compound M4K2281, 9-(4-Methylpiperazin-1-yl)-4-(3,4,5-trimethoxyphenyl)-5,6-dihydrobenzo[2,3]oxepino[4,5-c]pyridine], the concentration at 24 h in [6] is 0 nM.

Broadly, the IC50 is the midpoint of a concentration-inhibition curve. In turn, `COc1cc(-c2cncc3c2CN(C)Cc2cc(N4CCNCC4)ccc2-3)cc(OC)c1OC` [Compound M4K2304, 6-Methyl-9-(piperazin-1-yl)-4-(3,4,5-trimethoxyphenyl)-6,7-dihydro-5H-benzo[c]pyrido[3,4-e]azepine] returned a recovery at 2 h, 5 μM in data set [7] of less than 15%. Further, the “kinases inhibited by more than 50%” value in data set [8] amounted to 3%. In addition, the “Microsomal Stability Assay HLM (%)” value in data set [9] is recorded as greater than 70%. This compound yielded an IC50 in [10] of 1180 nM. Further, the “Microsomal Stability Assay MLM (%)” value in [11] was greater than 70%.

For `COc1cc(-c2cncc3c2CN(C)Cc2cc(N4CCN(C)CC4)ccc2-3)cc(OC)c1OC` [Compound M4K2306, 6-Methyl-9-(4-methylpiperazin-1-yl)-4-(3,4,5-trimethoxyphenyl)-6,7-dihydro-5H-benzo[c]pyrido[3,4-e]azepine], the recovery at 2 h, 5 μM in data set [7] is less than 15%.

Regarding `COc1cc(-c2cc(-c3ccc(N4CCNCC4)cc3)cnc2C)cc(OC)c1OC` [LDN-214117], in data set [12], the “survival of mice bearing orthotopic xenografts” value is on record as “extended survival”.
